# Data as given in patent publication US20240148711A1, “COMPOSITION COMPRISING BETA BLOCKER AND CHOLINESTERASE INHIBITOR FOR TREATMENT OF NEURODEGENERATIVE DISEASE” (DR. NOAH BIOTECH INC., priority 2022, published 2024).
# What was measured:
# microglia (BV2 cells) = test: NO generation in LPS-treated microglia (anti-inflammatory effect); assay type: cell-based; settings: BV2 cells treated with LPS and drug at the same time; compared to the LPS control group
# Procedure: Microglia (BV2 cells) were treated with LPS to cause an inflammatory response and, at the same time, treated with nebivolol alone, donepezil alone, or nebivolol+donepezil combination to measure the concentration of generated NO.
# [1] = tested on: Immortalized human neural progenitor cell line (ReNcell VM); test: Differentiation of neural progenitor cells into motor neurons (HB9 immunostaining / CellTag); assay type: cell-based; settings: compared to the control group
# Procedure: Immortalized human neural progenitor cell line (ReNcell VM) as a neural progenitor cell that may differentiate into neurons and glial cells was treated with nebivolol alone, donepezil alone, and nebivolol+donepezil combination. Thereafter, immunostaining was performed using an antibody capable of selectively binding to motor neurons (anti-HB9 antibody) and a CellTag probe that stains whole cells. Thereafter, the HB9 positive signal and the value of CellTag were analyzed to determine the number of motor neurons among the total cells, thereby measuring the degree of differentiation of neural precursor cells into motor neurons.
# neuroblasts (SH-SY5Y) = test: ROS generation after H2O2 oxidative stress (DCF fluorescence); assay type: cell-based; settings: compared to the control group
# SOD1G93A transgenic mice = test: Rotarod latency test in ALS animal model; assay type: in vivo; settings: oral once daily from 70 days of age for 70 days, edaravone 15 mg/kg, NDC-011 nebivolol 5 mg/kg+donepezil 3 mg/kg, compared to the normal control group
# Procedure: SOD1G93A transgenic mice as ALS animal models were used to verify the in vivo efficacy of the nebivolol and donepezil complex. Edaravone (15 mg/kg) as a commercially available ALS treatment, or a nebivolol and donepezil complex (NDC-011, nebivolol 5 mg/kg+donepezil 3 mg/kg) according to the present invention was administered to mice from 70 days of age once daily. Each dose was orally administered for 70 days. The rotarod latency test was performed immediately before the start of drug administration to evaluate the motor ability of each animal, and, thereafter, the rotarod latency test was performed during the drug administration period at 7-day intervals to evaluate the motor ability of the ALS animals.
# [2] = ReNcell VM, low concentration (0.01 μM) of nebivolol or donepezil alone
SMILES,concentration of generated NO (microglia (BV2 cells)),"HB-9 expression (motor neuron marker) [1, 2]",amount of generated reactive oxygen species (ROS) (neuroblasts (SH-SY5Y)),age from which exercise capacity decreased (rotarod latency) (SOD1G93A transgenic mice) [days],HB-9 expression (motor neuron marker) ([1]; ReNcell VM under differentiation conditions)
"COc1cc2c(cc1OC)C(=O)C(CC1CCN(Cc3ccccc3)CC1)C2 (centres unmarked) [donepezil, Donepezil]",significant reduction in NO,not observed,no significant decrease,–,–
"CC1=NN(c2ccccc2)C(=O)C1 [edaravone, Edaravone]",–,–,–,84,–
"OC(CNCC(O)C1CCc2cc(F)ccc2O1)C1CCc2cc(F)ccc2O1 (centres unmarked) [nebivolol, Nebivolol]",significant reduction in NO,not observed,no significant decrease,–,significant increase in HB-9 expression
